Laboratory results as given in ChEMBL document CHEMBL1909569 (Bioorg Med Chem Lett, 2011).

What was measured:
[1] = (§1) Inhibition of Mycobacterium tuberculosis expressing RNA polymerase RpoB S450L mutant after 10 mins using ribo green by rolling circle transcription assay
[2] = tested on: Mycobacterium tuberculosis; test: as §1
[3] = tested on: Mycobacterium tuberculosis; test: Ratio of compound MIC90 to Rifampin S MIC90 for Mycobacterium tuberculosis RNA polymerase RpoB S450L mutant
[4] = tested on: Mycobacterium tuberculosis; test: Ratio of compound MIC90 to Rifamycin S MIC90 for Mycobacterium tuberculosis RNA polymerase RpoB S450L mutant

Row | Compound | IC50 [1] [µM] | logIC50 [2] | Ratio IC50 [3] | Ratio [4]
1 | CO[C@H]1/C=C/O[C@@]2(C)Oc3c(c4c5c(nn(CCO)c5c3C)C(=C(/C=N/N3CCN(C)CC3)C4=O)NC(=O)/C(C)=C\C=C\[C@H](C)[C@H](O)[C@@H](C)[C@@H](O)[C@@H](C)[C@H](OC(C)=O)[C@@H]1C)C2=O | 29.9 | 1.48 |  | 
2 | CO[C@H]1/C=C/O[C@@]2(C)Oc3c(C)c(O)c4c(c3C2=O)C(=O)C(/C=N/N2CCN(C)CC2)=C(NC(=O)/C(C)=C\C=C\[C@H](C)[C@H](O)[C@@H](C)[C@@H](O)[C@@H](C)[C@H](OC(C)=O)[C@@H]1C)C4=O [RIFAMPIN S] | 46.5 | 1.67 |  | 
3 | CO[C@H]1/C=C/O[C@@]2(C)Oc3c(C)c(O)c4c(c3C2=O)C(=O)C=C(NC(=O)/C(C)=C\C=C\[C@H](C)[C@H](O)[C@@H](C)[C@@H](O)[C@@H](C)[C@H](OC(C)=O)[C@@H]1C)C4=O [RIFAMYCIN S] | 36 | 1.56 |  | 
4 | CO[C@H]1/C=C/O[C@@]2(C)Oc3c(C)c(N)c4c(c3C2=O)C(=O)C=C(NC(=O)/C(C)=C\C=C\[C@H](C)[C@H](O)[C@@H](C)[C@@H](O)[C@@H](C)[C@H](OC(C)=O)[C@@H]1C)C4=O | 186 | 2.27 | 3 | 
5 | CO[C@H]1/C=C/O[C@@]2(C)Oc3c(C)c(N(C)C)c4c(c3C2=O)C(=O)C=C(NC(=O)/C(C)=C\C=C\[C@H](C)[C@H](O)[C@@H](C)[C@@H](O)[C@@H](C)[C@H](OC(C)=O)[C@@H]1C)C4=O | 270 | 2.43 | 3 | 
6 | CO[C@H]1/C=C/O[C@@]2(C)Oc3c(C)c(OS(=O)(=O)c4ccc(C)cc4)c4c(c3C2=O)C(=O)C=C(NC(=O)/C(C)=C\C=C\[C@H](C)[C@H](O)[C@@H](C)[C@@H](O)[C@@H](C)[C@H](OC(C)=O)[C@@H]1C)C4=O | 982 | 2.99 |  | 5
7 | CO[C@H]1/C=C/O[C@@]2(C)Oc3c(C)c(NC4CCCCCC4)c4c(c3C2=O)C(=O)C=C(NC(=O)/C(C)=C\C=C\[C@H](C)[C@H](O)[C@@H](C)[C@@H](O)[C@@H](C)[C@H](OC(C)=O)[C@@H]1C)C4=O | 127 | 2.1 | 3 | 
8 | CO[C@H]1/C=C/O[C@@]2(C)Oc3c(C)c(SC)c4c(c3C2=O)C(=O)C=C(NC(=O)/C(C)=C\C=C\[C@H](C)[C@H](O)[C@@H](C)[C@@H](O)[C@@H](C)[C@H](OC(C)=O)[C@@H]1C)C4=O | 37.5 | 1.57 |  | 
